US20010055627A1, “Compositions And Methods For Regulating Lipoproteins And Hypercholesterolemia With Limonoids, Flavonoids And Tocotrienols” (priority 1997, published 2001)
≈ marks a conversion by molar mass, not a printed value. Where two headings read alike, the source gives them in different places.

Key:
[1] = system: apo-B production in HepG2 cells; experiment: Apo-B content of medium of HepG2 cells by ELISA; assay type: cell-based, human; conditions: for effect on apo-B levels/content / reduction of medium apo-B levels: HepG2, 24 h; for reduction of medium apo-B levels: 50 μg/mL, per mg cell protein, versus control
Experimental: Cell Culture: Confluent HepG2 cells were preincubated in minimum essential medium (MEM) containing 1.0% bovine serum albumin (BSA) for 24 hours. This was followed by a second 24 hour incubation with or without various non-toxic concentrations of naringenin or hesperitin (7.5-60 ug/ml). At the end of the second 24 hour incubation, the apo-B content of the media was determined by enzyme-lined immunosorbent assay (ELISA) (Young et al., 1986, Clin. Chem. 32:1484-1490).
Protein Determination: The soluble cellular protein was extracted and measured using Pierce Coomassie Plus Protein Assay.
(§1) The limonoids, limonin and nomilin were examined for the cholesterol-lowering potential in HepG2 cells. Confluent HepG2 cells were preincubated for 24 h in a lipoprotein-free medium in which the fetal bovine serum was replaced by albumin to inhibit cell proliferation and to stimulate synthesis of cholesterol-containing lipoproteins. Cells were subsequently incubated for another 24 h in the same medium in the presence or absence of limonoids at the highest concentrations sustaining 100% cell viability, as determined by 3-(4,5-dimethylthiazol-2-yl)-2,5-diphenyltetrazolium bromide (MTT) viability assay. The limonoids were added to the cell culture medium after solubilization in dimethyl sulfoxide (DMSO). At the end of the incubation, culture media were collected and the concentration of the LDL structural protein, apo-B, was measured by Elisa by procedures already described in Section 6.0. Amount of lipoprotein-associated apo-B in the media (net apo-B secretion) was determined as described previously, calculated per mg cell protein and expressed as percent of control.
Apo-B productioon (the structural protein of LDL) was studied in HepG2 cells, using a 24. The effect of flavonoids on apo-B production after 24 h incubation of cells and measuring apo-B by Elisa as described above. All flavonoids, reduced the apo-B levels dose dependently.

[2] = system: casein-induced hypercholesterolemia; experiment: Serum lipoprotein cholesterol in rabbits fed cholesterol-free casein diet with citrus juice; assay type: in vivo; conditions: rabbits on casein diet, 3 weeks; hesperitin given as orange juice, naringenin as grapefruit juice (two times regular strength)
Description: The effect of naringenin and hesperetin on casein-induced hypercholesterolemia was studied in rabbits. In each of the two experiments, rabbits were assigned to thee experimental groups. Each group was given semipurified, cholesterol-free casein diet and either water, orange juice or grapefruit juice to drink. The control group received water to drink and the experimental groups were given either orange juice or grapefruit juice (reconstituted concentrates made up to two times the regular strength). […] FIG. 1 depicts the design of the experiment.
Dextrose in the diets of the hesperitin (orange juice) and naringenin (grapefruit juice) groups was reduced to account for the sugar consumed via citrus juices. All other dietary components were left unchanged. (Table 1).
Serum Analysis: At the end of the study, VLDL, LDL and HDL fractions were separated by discontinuous density gradient ultracentrifugation. Total cholesterol in serum and in each lipoprotein fraction were measured using the Boehinger Manheim CHOL kit (Manheim, Germany).

[3] = Growth performance of hamsters fed experimental diets; assay type: in vivo, Golden Syrian hamsters; conditions: supplement level as in label, means ± SD; for Growth Rate: diet for 35 days; for Food Consumption: last two weeks of treatment
Experimental: (§2) Fifty four male Golden Syrian hamsters weighing 100-120 g at arrival were housed individually in a constant temperature 21-24° C. and with 12 h light:dark cycle. The animals were fed ground chow diet for 1 week. Thereafter, they were divided into seven groups (six groups of 8 animals and one group of 6 animals), each with similar average body weight, and fed experimental diets for 35 days. Food and water were provided at libitum. Food consumption was estimated during the last two weeks of treatment, for thee consecutive days during each week.
(§3) The basal composition was similar to that described earlier. All diets contained 25% casein and 0.1% cholesterol. Experimental diets contained TTP and/or principal flavonoids, hesperidin or naringenin, added at indicated levels at the expense of rice flour.

[4] = system: hamster model of experimental hypercholesterolemia; experiment: Serum lipids in hamster model of experimental hypercholesterolemia (casein, cholesterol-enriched diet); assay type: in vivo, Golden Syrian hamsters; conditions: hamsters; for HDL cholesterol (serum) / Total cholesterol (serum) / Total triacylglycerols (serum) / VLDL + LDL Cholesterol (serum) / VLDL + LDL/HDL cholesterol ratio: 35 days on diet; for HDL cholesterol (serum) / Total cholesterol (serum) / Total triacylglycerols (serum): supplement level as in label; for HDL cholesterol (serum) / Total cholesterol (serum) / VLDL + LDL Cholesterol (serum) / VLDL + LDL/HDL cholesterol ratio: mean; for Total triacylglycerols (serum): means ± SD; for VLDL + LDL Cholesterol (serum): difference between total and HDL cholesterol
Experimental: Extracted flavonoids and a tocotrienol-rich preparation from palm oil, all provided by KGK Synergize Inc. London, Ontario, were tested in the hamster model of experimental hypercholesterolemia. The purpose of the study was to establish whether in this model, 2% supplementation of casein diet with palm tocotrienol preparation containing 70% of pure tocotrienols α-, γ- and δ-(TTP), or a similar 2% supplementation with flavonoids, hesperidin extrated from oranges and naringin extrated from grapefruit, could lower the elevated LDL cholesterol levels induced by casein. A further purpose of the study was to determine whether supplementation with 2% TTP in combination with 2% hesperidin or 2% naringin could result in synergistic cholesterol-lowering effects. Synergistic cholesterol-lowering responses have been observed for combinations of tocotrienols and citrus flavonoids in human liver cell line HepG2. The additional goal of this study was to establish whether in the same hamster model of hypercholesterolemia, 0.13% supplementation of casein diet with a mixture of polymethoxylated flavones from tangerines (PMF) could lower the elevated LDL cholesterol levels induced by casein. This experiment was based on previous tests In vitro using human liver cell line HepG2, in which principal flavonoids from PMF, tangeretin and nobiletin, had much greater cholesterol-lowering potential than hesperetin or naringenin.
In hamsters, feeding a semipurified, casein-based, cholesterol-enriched diet for the period of 5 weeks induces experimental hypercholesterolemia associated with elevation of LDL cholesterol, similar to that observed in humans.
as §2, §3
At the end of the study, the animals were fasted overnight and blood samples were taken by heart puncture. Total cholesterol in whole serum and in HDL fraction as well as total triacylglycerols were measured by enzymatic timed-endpoint methods, using the Beckman Coulter reagents (CHOL Reagent, HDLD HDL Reagent and TG Triglycerides GPO Reagent, respectively). All measurements were performed using SYNCHON LX System. VLDL+LDL cholesterol concentrations were calculated as a difference between total and HDL cholesterol. Results obtained were analyzed by one-way ANOVA followed by Dunnet's or Student-Newman-Keuls test for all groups and additionally by t-test for the PMF vs. the control group. Significant differences were reported at p<0.05.

[5] = system: 14C-acetate incorporation into cellular lipids in HepG2 cells; experiment: 14C-acetate incorporation into cellular lipids of HepG2 cells; assay type: cell-based, human; conditions: HepG2, 24 h, 50 μg/ml (highest non-toxic concentration)
Experimental: ^14C-acetate Incorporation: To determine whether exposure to flavonoids can also alter intracellular lipid metabolism, confluent HepG2 cells were incubated for 24 hours with the highest apo-B-reducing, non-toxic concentration of these flavonoids, in the presence of ^14C-acetate (0.5u Ci/ml medium). Radiolabelled lipids were then extracted from cells using heptane/isopropyl alcohol (3:2, v/v), and separated by thin layer chomatrography. A hexane/ethyl ether/acetic acid solvent (75:25:1, v/v) was used to separate cholesterol, cholesterol esters and triglycerides. Lipid fractions were scraped into scintillation vials and the radioactivity was measured using Beckman Scintillation Counter.
To determine whether exposure to limonin altered intracellular lipid metabolism, confluent HepG2 cells were incubated for 24 h with or without the highest non-cytotoxic concentration of limonin. During the last 5 h of the incubation, ^14C-acetate (0.5 μCi/mL) was added to the medium. The extraction and separation of cellular lipids was done described above.

[6] = system: HepG2 cells; experiment: MTT viability assay, highest non-toxic concentration; assay type: cell-based, human; conditions: HepG2, 100% cell viability by MTT
Experimental: as §1

[7] = five weeks, versus control diet, 2% in diet (PMF 0.13%)
[8] = Homo sapiens, HepG2, comparison of limonin and flavonoids, FIG. 5, read-out: IC50 apo-B content

COc1ccc([C@@H]2CC(=O)c3c(O)cc(O)cc3O2)cc1O [hesperetin]
effect on apo-B levels/content [1]: reduced the apo-B content in a dose-dependent manner
IC50 apo-B production ([1]; HepG2, 24 h incubation, ELISA): 43.0 µg/mL (≈ 142 µM)
IC50 ([1]; HepG2, comparison of limonin and flavonoids, FIG. 5, read-out: IC50 apo-B content): 43 µM
reduction of LDL cholesterol levels compared with those given water [2]: 43%

COc1ccc([C@@H]2CC(=O)c3c(O)cc(O[C@@H]4O[C@H](CO[C@@H]5O[C@@H](C)[C@H](O)[C@@H](O)[C@H]5O)[C@@H](O)[C@H](O)[C@H]4O)cc3O2)cc1O [hesperidin]
Growth Rate [3]: 0.98 ± 0.24 g/day
Food Consumption [3]: 13.15 ± 4.72 g/day
HDL cholesterol (serum) [4]: 4.07 mM/L
Total cholesterol (serum) [4]: 6.73 mM/L
Total triacylglycerols (serum) [4]: 2.64 ± 1.47 mM/L
VLDL + LDL Cholesterol (serum) [4]: 2.66 mM/L
VLDL + LDL/HDL cholesterol ratio [4]: 0.66
Percent change HDL cholesterol ([4]; 35 days, versus control diet): −7%
Percent change Total cholesterol ([4]; 35 days, versus control diet): −9%
Percent change Total triacylglycerols ([4]; 35 days, versus control diet): −36%
Percent change VLDL + LDL Cholesterol ([4]; 35 days, versus control diet): −12%
reduction of serum HDL cholesterol [4, 7]: 7%
reduction of serum total triacylglycerols [4, 7]: 36%

CC1(C)O[C@H]2CC(=O)OC[C@]23[C@H]2CC[C@@]4(C)[C@H](c5ccoc5)OC(=O)[C@H]5O[C@]54[C@]2(C)C(=O)C[C@@H]13 [limonin]
effect on 14C-acetate incorporation into cellular cholesterol, cholesteryl esters and triacylglycerols [5]: no effect
highest non-toxic concentration [6]: 50 µg/mL
effect on apo-B levels/content [1]: reduced the apo-B content in a dose-dependent manner
reduction of medium apo-B levels [1]: 74%
IC50 concentration times lower than for both flavonoids (hesperetin, naringenin) ([1]; HepG2 apo-B): 2-2.4 times
IC50 [1, 8]: 20.5 µM

O=C1C[C@@H](c2ccc(O)cc2)Oc2cc(O)cc(O)c21 [naringenin]
effect on apo-B levels/content [1]: reduced the apo-B content in a dose-dependent manner
IC50 ([1]; Homo sapiens, HepG2, 24 h incubation, ELISA, read-out: IC50 apo-B production): 48.5 µg/mL
IC50 [1, 8]: 48.5 µM
reduction of LDL cholesterol levels compared with those given water [2]: 32%

C[C@@H]1O[C@@H](O[C@H]2[C@H](Oc3cc(O)c4c(c3)O[C@H](c3ccc(O)cc3)CC4=O)O[C@H](CO)[C@@H](O)[C@@H]2O)[C@H](O)[C@H](O)[C@H]1O [naringin]
Growth Rate [3]: 1.03 ± 0.26 g/day
Food Consumption [3]: 10.44 ± 2.36 g/day
HDL cholesterol (serum) [4]: 3.89 mM/L
Total cholesterol (serum) [4]: 6.56 mM/L
Total triacylglycerols (serum) [4]: 3.58 ± 1.40 mM/L
VLDL + LDL Cholesterol (serum) [4]: 2.66 mM/L
VLDL + LDL/HDL cholesterol ratio [4]: 0.68
Percent change HDL cholesterol ([4]; 35 days, versus control diet): −11%
Percent change Total cholesterol ([4]; 35 days, versus control diet): −11%
Percent change VLDL + LDL Cholesterol ([4]; 35 days, versus control diet): −12%
reduction of serum HDL cholesterol [4, 7]: 11%
reduction of serum total cholesterol [4, 7]: 11%

COc1ccc(-c2cc(=O)c3c(OC)c(OC)c(OC)c(OC)c3o2)cc1OC [nobiletin]
IC50 apo-B production ([1]; HepG2, 24 h incubation, ELISA): 4.9 µg/mL (≈ 12.2 µM)

CC(=O)O[C@H]1CC(=O)OC(C)(C)[C@@H]2CC(=O)[C@]3(C)[C@H](CC[C@@]4(C)[C@H](c5ccoc5)OC(=O)[C@H]5O[C@]543)[C@@]12C [nomilin]
reduction of medium apo-B levels [1]: 40%

COc1ccc(-c2cc(=O)c3c(OC)c(OC)c(OC)c(OC)c3o2)cc1 [tangeretin]
IC50 apo-B production ([1]; HepG2, 24 h incubation, ELISA): 2.5 µg/mL (≈ 6.71 µM)
